Assay results from US20170050957A1, “4-AMINO-6-(HETEROCYCLIC)PICOLINATES AND 6-AMINO-2-(HETEROCYCLIC)PYRIMIDINE-4-CARBOXYLATES AND THEIR USE AS HERBICIDES” (Dow AgroSciences LLC, priority 2013, published 2017).
Read-outs that look alike come from different tables or passages of the source.

Tests used:
[1] = tested on: Key Grass and Sedge Weeds as well as Grass Crops; experiment: Post-emergent Test II herbicidal activity (Table 16); assay type: in vivo; conditions: post-emergence, 336 h, 14 days after application; for pest or weed control at 35 g/ha: 35 g ai/ha; for pest or weed control at 70 g/ha: 70 g ai/ha; for pest or weed control at 140 g/ha: 140 g ai/ha
In short: (§1)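 Plants at first-second true leaf stage, grown 7-21 d in greenhouse (~15 h photoperiod, 23-29 °C day), were track-sprayed at 187 L/ha with compound in acetone/DMSO/water/isopropanol/crop oil/Triton X-155 at a high rate plus 1/2× to 1/16× dilutions. Injury scored visually after 14 d versus untreated plants, 0 (none) to 100% (complete kill).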

[2] = tested on: Key Broadleaf Weed and Crop Species; experiment: Post-emergent Test II herbicidal activity (Table 15); assay type: in vivo; conditions: post-emergence, 336 h, 14 d; for pest or weed control at 35 g/ha: 35 g ai/ha; for pest or weed control at 70 g/ha: 70 g ai/ha; for pest or weed control at 140 g/ha: 140 g ai/ha
In short: as §1

[3] = Cyperus esculentus, yellow nutsedge (Cyperus esculentus), read-out: Visual Growth Reduction (%) 14 Days After Application CYPES
[4] = Echinochloa crus-galli, barnyardgrass (Echinochloa crus-galli), read-out: Visual Growth Reduction (%) 14 Days After Application ECHCG
[5] = Oryza sativa, rice (Oryza sativa), read-out: Visual Growth Reduction (%) 14 Days After Application ORYSA
[6] = Setaria faberi, giant foxtail (Setaria faberi), read-out: Visual Growth Reduction (%) 14 Days After Application SETFA
[7] = Triticum aestivum, wheat, spring (Triticum aestivum), read-out: Visual Growth Reduction (%) 14 Days After Application TRZAS
[8] = Zea mays, maize, corn (Zea mays), read-out: Visual Growth Reduction (%) 14 Days After Application ZEAMX
[9] = Abutilon theophrasti, velvetleaf (Abutilon theophrasti), read-out: Visual Growth Reduction (%) 14 Days After Application, ABUTH
[10] = Brassica napus, oilseed rape, canola (Brassica napus), read-out: Visual Growth Reduction (%) 14 Days After Application, BRSNN
[11] = Chenopodium album, lambsquarters (Chenopodium album), read-out: Visual Growth Reduction (%) 14 Days After Application, CHEAL
[12] = Euphorbia heterophylla, wild poinsettia (Euphorbia heterophylla), read-out: Visual Growth Reduction (%) 14 Days After Application, EPHHL
[13] = Helianthus annuus, sunflower (Helianthus annuus), read-out: Visual Growth Reduction (%) 14 Days After Application, HELAN
[14] = Amaranthus retroflexus, redroot pigweed (Amaranthus retroflexus), read-out: Visual Growth Reduction (%) 14 Days After Application, AMARE

## Nc1c(Cl)c(C(=O)O)nc(-c2ccc3ccsc3c2)c1Cl [Compound 3.11]
other
  melting point: 239 °C (dec.)
[1]; [3]
  pest or weed control at 35 g/ha: 0 to 29%
  pest or weed control at 70 g/ha: 0 to 29%
  pest or weed control at 140 g/ha: 0 to 29%
[1]; [4]
  pest or weed control at 35 g/ha: 0 to 29%
  pest or weed control at 70 g/ha: 0 to 29%
  pest or weed control at 140 g/ha: 0 to 29%
[1]; [5]
  pest or weed control at 35 g/ha: 0 to 29%
  pest or weed control at 70 g/ha: 0 to 29%
  pest or weed control at 140 g/ha: 0 to 29%
[1]; [6]
  pest or weed control at 35 g/ha: 0 to 29%
  pest or weed control at 70 g/ha: 0 to 29%
  pest or weed control at 140 g/ha: 0 to 29%
[1]; [7]
  pest or weed control at 35 g/ha: 0 to 29%
  pest or weed control at 70 g/ha: 0 to 29%
  pest or weed control at 140 g/ha: 0 to 29%
[1]; [8]
  pest or weed control at 35 g/ha: 0 to 29%
  pest or weed control at 70 g/ha: 0 to 29%
  pest or weed control at 140 g/ha: 0 to 29%
[2]; [9]
  pest or weed control at 35 g/ha: 0 to 29%
  pest or weed control at 70 g/ha: 0 to 29%
  pest or weed control at 140 g/ha: 0 to 29%
[2]; [10]
  pest or weed control at 35 g/ha: 0 to 29%
  pest or weed control at 70 g/ha: 0 to 29%
  pest or weed control at 140 g/ha: 0 to 29%
[2]; [11]
  pest or weed control at 35 g/ha: 85 to 94%
  pest or weed control at 70 g/ha: 85 to 94%
  pest or weed control at 140 g/ha: 85 to 94%
[2]; [12]
  pest or weed control at 35 g/ha: 0 to 29%
  pest or weed control at 70 g/ha: 0 to 29%
  pest or weed control at 140 g/ha: 0 to 29%
[2]; [13]
  pest or weed control at 35 g/ha: 85 to 94%
  pest or weed control at 70 g/ha: 85 to 94%
  pest or weed control at 140 g/ha: 85 to 94%

## COC(=O)c1nc(-c2ccc3ncn(C)c3c2)c(F)c(N)c1Cl [Compound 7.02]
other
  melting point: 218 to 220 °C
[1]; [3]
  pest or weed control at 35 g/ha: 0 to 29%
  pest or weed control at 70 g/ha: 0 to 29%
  pest or weed control at 140 g/ha: 0 to 29%
[1]; [4]
  pest or weed control at 35 g/ha: 0 to 29%
  pest or weed control at 70 g/ha: 0 to 29%
  pest or weed control at 140 g/ha: 0 to 29%
[1]; [5]
  pest or weed control at 35 g/ha: 0 to 29%
  pest or weed control at 70 g/ha: 0 to 29%
  pest or weed control at 140 g/ha: 0 to 29%
[1]; [7]
  pest or weed control at 35 g/ha: 0 to 29%
  pest or weed control at 70 g/ha: 0 to 29%
  pest or weed control at 140 g/ha: 0 to 29%
[1]; [8]
  pest or weed control at 35 g/ha: 0 to 29%
  pest or weed control at 70 g/ha: 0 to 29%
  pest or weed control at 140 g/ha: 0 to 29%
[2]; [9]
  pest or weed control at 35 g/ha: 0 to 29%
  pest or weed control at 70 g/ha: 0 to 29%
  pest or weed control at 140 g/ha: 0 to 29%
[2]; [14]
  pest or weed control at 35 g/ha: 0 to 29%
  pest or weed control at 70 g/ha: 0 to 29%
  pest or weed control at 140 g/ha: 0 to 29%
[2]; [10]
  pest or weed control at 35 g/ha: 0 to 29%
  pest or weed control at 70 g/ha: 0 to 29%
  pest or weed control at 140 g/ha: 0 to 29%
[2]; [11]
  pest or weed control at 35 g/ha: 0 to 29%
  pest or weed control at 70 g/ha: 75 to 84%
  pest or weed control at 140 g/ha: 95 to 100%
[2]; [12]
  pest or weed control at 35 g/ha: 0 to 29%
  pest or weed control at 70 g/ha: 0 to 29%
  pest or weed control at 140 g/ha: 0 to 29%
[2]; [13]
  pest or weed control at 35 g/ha: 0 to 29%
  pest or weed control at 70 g/ha: 0 to 29%
  pest or weed control at 140 g/ha: 0 to 29%
